Measured values reported in ChEMBL document CHEMBL3885881, “DrugMatrix”.

Organism: Rattus norvegicus
Assay: DrugMatrix - Regimen: Daily Repeat
Format: toxicity, organism-based, Sprague-Dawley
Set-up: regimen Daily Repeat, gender Male, age 6-8 weeks
Conditions: in vivo, sc, 1915 mg/kg, route subcutaneous, dose level High, […]; for ABSOLUTE BASOPHIL / ABSOLUTE EOSINOPHIL / ABSOLUTE LYMPHOCYTE / ABSOLUTE MONOCYTE / ABSOLUTE SEGMENTED NEUTROPHIL / BASOPHIL / EOSINOPHIL / ERYTHROCYTE COUNT / HEMATOCRIT / HEMOGLOBIN / LEUKOCYTE COUNT / LYMPHOCYTE / MEAN CORPUSCULAR HEMOGLOBIN / MEAN CORPUSCULAR HEMOGLOBIN CONCENTRATION / MEAN CORPUSCULAR VOLUME / MONOCYTE / NEUTROPHIL / NUCLEATED RED BLOOD CELLS / PLATELET COUNT: tissue Blood; for ALANINE AMINOTRANSFERASE / ALBUMIN / ALKALINE PHOSPHATASE / ASPARTATE AMINOTRANSFERASE / BLOOD UREA NITROGEN / CARBON DIOXIDE / CHLORIDE / CHOLESTEROL / CREATINE PHOSPHOKINASE / CREATININE / GLUCOSE / LACTATE DEHYDROGENASE / LIPASE / PHOSPHORUS / POTASSIUM / SODIUM / TOTAL BILIRUBIN / TOTAL PROTEIN / URIC ACID: tissue Plasma

Cc1cc(O)cc(C)c1Cl [CHLOROXYLENOL]
ABSOLUTE BASOPHIL (72 h, time 3 day): 0 CELLS/uL | ABSOLUTE EOSINOPHIL (72 h, time 3 day): 0 CELLS/uL | ABSOLUTE LYMPHOCYTE (72 h, time 3 day): 13518.33 CELLS/uL | ABSOLUTE MONOCYTE (72 h, time 3 day): 372.33 CELLS/uL | ABSOLUTE SEGMENTED NEUTROPHIL (72 h, time 3 day): 2242.67 CELLS/uL | BASOPHIL (72 h, time 3 day): 0% | EOSINOPHIL (72 h, time 3 day): 0% | ERYTHROCYTE COUNT (72 h, time 3 day): 5.43 x10E6/uL | HEMATOCRIT (72 h, time 3 day): 33.13% | HEMOGLOBIN (72 h, time 3 day): 12.03 G/DL | LEUKOCYTE COUNT (72 h, time 3 day): 16.13 x10E3/uL | LYMPHOCYTE (72 h, time 3 day): 84.33% | MEAN CORPUSCULAR HEMOGLOBIN (72 h, time 3 day): 22.17 pg | MEAN CORPUSCULAR HEMOGLOBIN CONCENTRATION (72 h, time 3 day): 36.33 G/DL | MEAN CORPUSCULAR VOLUME (72 h, time 3 day): 61.07 fL | MONOCYTE (72 h, time 3 day): 2.33% | NEUTROPHIL (72 h, time 3 day): 13.33% | NUCLEATED RED BLOOD CELLS (72 h, time 3 day): 0 /100WBC | PLATELET COUNT (72 h, time 3 day): 1126.33 x10E3/uL | ALANINE AMINOTRANSFERASE (72 h, time 3 day): 50.33 u/L | ALBUMIN (72 h, time 3 day): 3.67 G/DL | ALKALINE PHOSPHATASE (72 h, time 3 day): 250.33 u/L | ASPARTATE AMINOTRANSFERASE (72 h, time 3 day): 81.67 u/L | BLOOD UREA NITROGEN (72 h, time 3 day): 18 mg/dL | CARBON DIOXIDE (72 h, time 3 day): 24.33 mmol/L | CHLORIDE (72 h, time 3 day): 104.33 MEQ/L | CHOLESTEROL (72 h, time 3 day): 76.67 mg/dL | CREATINE PHOSPHOKINASE (72 h, time 3 day): 276 u/L | CREATININE (72 h, time 3 day): 0.18 mg/dL | GLUCOSE (72 h, time 3 day): 175 mg/dL | LACTATE DEHYDROGENASE (72 h, time 3 day): 84.67 u/L | LIPASE (72 h, time 3 day): 8.67 u/L | PHOSPHORUS (72 h, time 3 day): 11.43 mg/dL | POTASSIUM (72 h, time 3 day): 6.05 MEQ/L | SODIUM (72 h, time 3 day): 145.23 MEQ/L | TOTAL BILIRUBIN (72 h, time 3 day): 0.13 mg/dL | TOTAL PROTEIN (72 h, time 3 day): 5.67 G/DL | URIC ACID (72 h, time 3 day): 2.13 mg/dL | ABSOLUTE BASOPHIL (120 h, time 5 day): 0 CELLS/uL | ABSOLUTE EOSINOPHIL (120 h, time 5 day): 164.67 CELLS/uL | ABSOLUTE LYMPHOCYTE (120 h, time 5 day): 16889.67 CELLS/uL | ABSOLUTE MONOCYTE (120 h, time 5 day): 1259.67 CELLS/uL | ABSOLUTE SEGMENTED NEUTROPHIL (120 h, time 5 day): 6552.67 CELLS/uL | BASOPHIL (120 h, time 5 day): 0% | EOSINOPHIL (120 h, time 5 day): 0.67% | ERYTHROCYTE COUNT (120 h, time 5 day): 5.49 x10E6/uL | HEMATOCRIT (120 h, time 5 day): 33.1% | HEMOGLOBIN (120 h, time 5 day): 12.6 G/DL | LEUKOCYTE COUNT (120 h, time 5 day): 24.87 x10E3/uL | LYMPHOCYTE (120 h, time 5 day): 68% | MEAN CORPUSCULAR HEMOGLOBIN (120 h, time 5 day): 23.07 pg | MEAN CORPUSCULAR HEMOGLOBIN CONCENTRATION (120 h, time 5 day): 38.1 G/DL | MEAN CORPUSCULAR VOLUME (120 h, time 5 day): 60.43 fL | MONOCYTE (120 h, time 5 day): 5% | NEUTROPHIL (120 h, time 5 day): 26.33% | NUCLEATED RED BLOOD CELLS (120 h, time 5 day): 0 /100WBC | PLATELET COUNT (120 h, time 5 day): 1493 x10E3/uL | ALANINE AMINOTRANSFERASE (120 h, time 5 day): 55.67 u/L | ALBUMIN (120 h, time 5 day): 3.17 G/DL | ALKALINE PHOSPHATASE (120 h, time 5 day): 330 u/L | ASPARTATE AMINOTRANSFERASE (120 h, time 5 day): 87.67 u/L | BLOOD UREA NITROGEN (120 h, time 5 day): 18.33 mg/dL | CARBON DIOXIDE (120 h, time 5 day): 32 mmol/L | CHLORIDE (120 h, time 5 day): 103.67 MEQ/L | CHOLESTEROL (120 h, time 5 day): 77 mg/dL | CREATINE PHOSPHOKINASE (120 h, time 5 day): 151 u/L | CREATININE (120 h, time 5 day): 0.22 mg/dL | GLUCOSE (120 h, time 5 day): 164 mg/dL | LACTATE DEHYDROGENASE (120 h, time 5 day): 64 u/L | LIPASE (120 h, time 5 day): 8 u/L | PHOSPHORUS (120 h, time 5 day): 11.27 mg/dL | POTASSIUM (120 h, time 5 day): 6.34 MEQ/L | SODIUM (120 h, time 5 day): 145.63 MEQ/L | TOTAL BILIRUBIN (120 h, time 5 day): 0.13 mg/dL | TOTAL PROTEIN (120 h, time 5 day): 5.33 G/DL | URIC ACID (120 h, time 5 day): 1.83 mg/dL
